Laboratory results taken from PubChem BioAssay (NCI).
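All cell lines were grown in 96-well plates and treated with compound for 48 hours. TGI: concentration producing complete growth inhibition.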

Columns and labels:
Test in all cases: growth of human tumour cells (NCI), 48 h
LOX IMVI melanoma = tested on: LOX IMVI melanoma
RPMI-8226 leukemia = tested on: RPMI-8226 leukemia
UACC-62 melanoma = tested on: UACC-62 melanoma
HS 578T breast = tested on: HS 578T breast
SF-268 CNS = tested on: SF-268 CNS
NCI-H522 lung = tested on: NCI-H522 lung
PC-3 prostate = tested on: PC-3 prostate
SW-620 colon = tested on: SW-620 colon
HCC-2998 colon = tested on: HCC-2998 colon
SN12C renal = tested on: SN12C renal
HL-60(TB) leukemia = tested on: HL-60(TB) leukemia
HCT-15 colon = tested on: HCT-15 colon
SNB-19 CNS = tested on: SNB-19 CNS
TK-10 renal = tested on: TK-10 renal
CAKI-1 renal = tested on: CAKI-1 renal
OVCAR-4 ovarian = tested on: OVCAR-4 ovarian
BT-549 breast = tested on: BT-549 breast
HOP-62 NSCLC = tested on: HOP-62 NSCLC
UACC-257 melanoma = tested on: UACC-257 melanoma
SK-OV-3 ovarian = tested on: SK-OV-3 ovarian
CCRF-CEM leukemia = tested on: CCRF-CEM leukemia
U251 CNS = tested on: U251 CNS
SNB-75 CNS = tested on: SNB-75 CNS
KM12 colon = tested on: KM12 colon
A549 NSCLC = tested on: A549 NSCLC
IGROV1 ovarian = tested on: IGROV1 ovarian
HOP-92 NSCLC = tested on: HOP-92 NSCLC
NCI-H460 lung = tested on: NCI-H460 lung
MDA-N = tested on: MDA-N
EKVX NSCLC = tested on: EKVX NSCLC
MDA-MB-231 breast = tested on: MDA-MB-231 breast
SR leukemia = tested on: SR leukemia
OVCAR-8 ovarian = tested on: OVCAR-8 ovarian
NCI-H226 lung = tested on: NCI-H226 lung
MOLT-4 leukemia = tested on: MOLT-4 leukemia
ACHN renal = tested on: ACHN renal
SF-295 CNS = tested on: SF-295 CNS
K-562 leukemia = tested on: K-562 leukemia
786-0 renal = tested on: 786-0 renal
NCI/ADR-RES ovarian = tested on: NCI/ADR-RES ovarian
SK-MEL-5 melanoma = tested on: SK-MEL-5 melanoma
T-47D breast = tested on: T-47D breast
MDA-MB-435 = tested on: MDA-MB-435
RXF 393 renal = tested on: RXF 393 renal
COLO 205 colon = tested on: COLO 205 colon
HCT-116 colon = tested on: HCT-116 colon
SF-539 CNS = tested on: SF-539 CNS
DU-145 prostate = tested on: DU-145 prostate
M14 melanoma = tested on: M14 melanoma
SK-MEL-2 melanoma = tested on: SK-MEL-2 melanoma
MALME-3M melanoma = tested on: MALME-3M melanoma
MCF7 breast = tested on: MCF7 breast
SK-MEL-28 melanoma = tested on: SK-MEL-28 melanoma
HT29 colon = tested on: HT29 colon
UO-31 renal = tested on: UO-31 renal
OVCAR-5 ovarian = tested on: OVCAR-5 ovarian
OVCAR-3 ovarian = tested on: OVCAR-3 ovarian
A498 renal = tested on: A498 renal

`CCN(CC)c1ccc2cc(-c3nc4ccccc4c(=O)[nH]3)c(=N)oc2c1` showed a TGI (LOX IMVI melanoma) greater than 100 µM, a TGI (RPMI-8226 leukemia) greater than 100 µM and a TGI (UACC-62 melanoma) greater than 100 µM. It also gave a TGI (HS 578T breast) greater than 100 µM, a TGI (SF-268 CNS) greater than 100 µM and a TGI (NCI-H522 lung) greater than 100 µM. For the same molecule, the TGI (PC-3 prostate) was greater than 100 µM, the TGI (SW-620 colon) was greater than 100 µM and the TGI (HCC-2998 colon) was greater than 100 µM. The TGI (SN12C renal) was greater than 100 µM, the TGI (HL-60(TB) leukemia) was greater than 100 µM and the TGI (HCT-15 colon) was greater than 100 µM. It also gave a TGI (SNB-19 CNS) greater than 100 µM, a TGI (TK-10 renal) greater than 100 µM and a TGI (CAKI-1 renal) greater than 100 µM. It also gave a TGI (OVCAR-4 ovarian) greater than 100 µM, a TGI (BT-549 breast) greater than 100 µM and a TGI (HOP-62 NSCLC) greater than 100 µM. For the same molecule, the TGI (UACC-257 melanoma) was greater than 100 µM, the TGI (SK-OV-3 ovarian) was greater than 100 µM and the TGI (CCRF-CEM leukemia) was greater than 100 µM. For the same molecule, the TGI (U251 CNS) was greater than 100 µM, the TGI (SNB-75 CNS) was greater than 100 µM and the TGI (KM12 colon) was greater than 100 µM. The TGI (A549 NSCLC) was greater than 100 µM, the TGI (IGROV1 ovarian) was greater than 100 µM and the TGI (HOP-92 NSCLC) was greater than 100 µM. For the same molecule, the TGI (NCI-H460 lung) was greater than 100 µM, the TGI (MDA-N) was greater than 100 µM and the TGI (EKVX NSCLC) was greater than 100 µM. For the same molecule, the TGI (MDA-MB-231 breast) was greater than 100 µM, the TGI (SR leukemia) was greater than 100 µM and the TGI (OVCAR-8 ovarian) was greater than 100 µM. The TGI (NCI-H226 lung) was greater than 100 µM, the TGI (MOLT-4 leukemia) was greater than 100 µM and the TGI (ACHN renal) was greater than 100 µM. For the same molecule, the TGI (SF-295 CNS) was greater than 100 µM, the TGI (K-562 leukemia) was greater than 100 µM and the TGI (786-0 renal) was greater than 100 µM. For the same molecule, the TGI (NCI/ADR-RES ovarian) was greater than 100 µM, the TGI (SK-MEL-5 melanoma) was greater than 100 µM and the TGI (T-47D breast) was greater than 100 µM. For the same molecule, the TGI (MDA-MB-435) was greater than 100 µM, the TGI (RXF 393 renal) was greater than 100 µM and the TGI (COLO 205 colon) was greater than 100 µM. It also gave a TGI (HCT-116 colon) greater than 100 µM, a TGI (SF-539 CNS) greater than 100 µM and a TGI (DU-145 prostate) greater than 100 µM. The TGI (M14 melanoma) was greater than 100 µM, the TGI (SK-MEL-2 melanoma) was greater than 100 µM and the TGI (MALME-3M melanoma) was greater than 100 µM. The TGI (MCF7 breast) was greater than 100 µM, the TGI (SK-MEL-28 melanoma) was greater than 100 µM and the TGI (HT29 colon) was greater than 100 µM. For the same molecule, the TGI (UO-31 renal) was greater than 100 µM and the TGI (OVCAR-5 ovarian) was greater than 100 µM.
`CN(C)c1ccc(/C=C2\N=C(c3ccccc3)N(c3ccc4c(c3)Sc3cc(N5C(=O)/C(=C/c6ccc(N(C)C)cc6)N=C5c5ccccc5)ccc3N4)C2=O)cc1` showed a TGI (LOX IMVI melanoma) of 40.9 µM, a TGI (RPMI-8226 leukemia) of 51.4 µM and a TGI (UACC-62 melanoma) of 33.7 µM. It also gave a TGI (HS 578T breast) of 72.7 µM, a TGI (SF-268 CNS) of 37.3 µM and a TGI (PC-3 prostate) of 34.4 µM. It also gave a TGI (SW-620 colon) greater than 100 µM, a TGI (HCC-2998 colon) of 37.9 µM and a TGI (SN12C renal) of 38.9 µM. For the same molecule, the TGI (HL-60(TB) leukemia) was 61.9 µM, the TGI (HCT-15 colon) was greater than 100 µM and the TGI (SNB-19 CNS) was 31.3 µM. The TGI (TK-10 renal) was 31.1 µM, the TGI (CAKI-1 renal) was 37.4 µM and the TGI (OVCAR-4 ovarian) was 61 µM. It also gave a TGI (BT-549 breast) of 66.6 µM, a TGI (HOP-62 NSCLC) of 32.1 µM and a TGI (UACC-257 melanoma) of 38.2 µM. For the same molecule, the TGI (SK-OV-3 ovarian) was 26.7 µM, the TGI (CCRF-CEM leukemia) was 20.1 µM and the TGI (U251 CNS) was 29 µM. For the same molecule, the TGI (SNB-75 CNS) was 27.4 µM, the TGI (KM12 colon) was greater than 100 µM and the TGI (A549 NSCLC) was 52.2 µM. The TGI (IGROV1 ovarian) was 32 µM, the TGI (HOP-92 NSCLC) was 35.1 µM and the TGI (NCI-H460 lung) was 62.3 µM. For the same molecule, the TGI (MDA-N) was greater than 100 µM, the TGI (EKVX NSCLC) was 74.8 µM and the TGI (MDA-MB-231 breast) was 41.5 µM. It also gave a TGI (SR leukemia) greater than 100 µM, a TGI (OVCAR-8 ovarian) of 34.4 µM and a TGI (OVCAR-3 ovarian) of 25.8 µM. The TGI (MOLT-4 leukemia) was greater than 100 µM, the TGI (ACHN renal) was 30.4 µM and the TGI (SF-295 CNS) was 36 µM. The TGI (K-562 leukemia) was 96.4 µM, the TGI (786-0 renal) was 45.6 µM and the TGI (NCI/ADR-RES ovarian) was 89.2 µM. The TGI (SK-MEL-5 melanoma) was 32.1 µM, the TGI (T-47D breast) was 48 µM and the TGI (MDA-MB-435) was 58 µM. It also gave a TGI (COLO 205 colon) greater than 100 µM, a TGI (HCT-116 colon) of 67.6 µM and a TGI (SF-539 CNS) of 32.8 µM. The TGI (DU-145 prostate) was 76.1 µM, the TGI (M14 melanoma) was 40.7 µM and the TGI (SK-MEL-2 melanoma) was 38.3 µM. The TGI (MCF7 breast) was 32.4 µM, the TGI (SK-MEL-28 melanoma) was greater than 100 µM and the TGI (HT29 colon) was greater than 100 µM. For the same molecule, the TGI (UO-31 renal) was 34.8 µM, the TGI (OVCAR-5 ovarian) was 40.8 µM and the TGI (A498 renal) was 31.8 µM.
